Reference: ChEMBL document CHEMBL3817834, “Scaffold morphing leading to evolution of 2,4-diaminoquinolines and aminopyrazolopyrimidines as inhibitors of the ATP synthesis pathway” (Medchemcomm, 2016)
pIC50: −log10 of the molar value.

How the values were obtained:
[1] = test system: Mycobacterium tuberculosis; assay: Induction of membrane damage in Mycobacterium bovis BCG incubated for 60 mins under dark condition using DiOC2 probe by fluorescence assay; format: organism-based; settings: variant bovis BCG, 1 h
[2] = test system: Mycobacterium tuberculosis; assay: Antimycobacterial activity against Mycobacterium bovis BCG assessed as depletion of intracellular ATP level at 5 times antimycobacterial MIC after 20 hrs by luciferin/luciferase coupled reporter gene assay relative to control; format: functional, variant bovis BCG

| SMILES | pIC50 [1] | Activity [2] [%] |
| --- | --- | --- |
| CN(C)CCOc1ncc(Nc2cc(-c3ccccc3)nc3cc(-c4ccc(F)cc4)nn23)cc1F | < 4.00 | 25 |
| COc1cc2nc(NCCC3CCOCC3)nc(Nc3cc(C(C)(C)C)n(C)n3)c2cc1OC | < 4.00 | – |
| CN(C)CCOc1ncc(Nc2cc(C(F)(F)F)nc3cc(-c4ccc(F)cc4)nn23)cc1F | < 4.00 | – |
| CN(C)CCOc1ncc(Nc2cc(-c3ccccc3)nc3cc(-c4ccc(F)cc4)[nH]c23)cc1F | < 4.00 | 23 |
| CCOc1ncc(Nc2nc(NCCC3CCOCC3)nc3cc(OC)c(OC)cc23)cc1F | – | 31 |
| COc1cc2nc(N3CCC(c4ccccc4Cl)C3)cc(Nc3cnc(OCCN(C)C)c(F)c3)c2cc1OC (stereo not drawn) | < 4.00 | 68 |
| CN(C)CCOc1ncc(Nc2cc(N3CCC(c4ccccc4Cl)C3)nc3cc(F)c(F)cc23)cc1F (stereo not drawn) | < 4.00 | 25 |
| COc1cc2nc(N3CCC(c4ccccc4Cl)C3)cc(Nc3cnc(NCCN(C)C)c(F)c3)c2cc1OC (stereo not drawn) | – | 22 |
| CCOc1ncc(Nc2cc(NCCC3CCOCC3)nc3cc(OC)c(OC)cc23)cc1F | < 4.00 | 5 |
| COc1nc2ccc(Br)cc2cc1[C@@H](c1ccccc1)[C@@](O)(CCN(C)C)c1cccc2ccccc12 [BEDAQUILINE] | < 4.00 | 76 |
| N#CC(C#N)=NNc1cccc(Cl)c1 [CARBONYL CYANIDE M-CHLOROPHENYLHYDRAZONE] | 5.52 | – |
| NNC(=O)c1ccncc1 [ISONIAZID] | – | -6 |
